According to the NIST ThermoML archive (doi:10.1021/je030117d):

Key:
[1] = Liquid; for mass density: 298.15 K, 101.33 kPa, Vibrating tube method; for Normal boiling temperature: Ebulliometric method (Recirculating still)
[2] = refractive index (Na D-line) (dimensionless); conditions: 298.15 K; 101.33 kPa; Liquid; Standard Abbe refractometry

COC=O [methyl methanoate]
Conditions	Normal boiling temperature [°C]	mass density [kg/m3]	refractive index
[1]	31.64	966.18	–
[2]	–	–	1.3412

CCCC(=O)OC [methyl butanoate]
Conditions	Normal boiling temperature [°C]	mass density [kg/m3]	refractive index
[1]	102.38	892.52	–
[2]	–	–	1.3852

CCCCC(=O)OC [methyl pentanoate]
Conditions	mass density [kg/m3]	refractive index
[1]	884.58	–
[2]	–	1.3947

[1]
Conditions	vapor or sublimation pressure [kPa]
364.75 K	32.01
365.85 K	33.33
366.98 K	34.67
368.03 K	36
369.05 K	37.33
370.1 K	38.66
371.03 K	40.01
371.97 K	41.33
372.92 K	42.66
373.81 K	43.99
374.7 K	45.33
375.56 K	46.64
376.4 K	48.01
377.18 K	49.33
378.01 K	50.64
378.82 K	51.98
379.59 K	53.33
380.33 K	54.67
381.1 K	56
381.82 K	57.33
382.51 K	58.67
383.29 K	59.99
383.95 K	61.33
384.62 K	62.68
385.25 K	63.99
385.95 K	65.33
386.57 K	66.66
387.18 K	67.99
387.84 K	69.32
388.44 K	70.66
389.08 K	71.99
389.65 K	73.33
390.24 K	74.65
390.82 K	76
391.39 K	77.3
391.94 K	78.66
392.5 K	79.99
393.04 K	81.33
393.61 K	82.66
394.12 K	83.98
394.65 K	85.33
395.16 K	86.66
395.69 K	88
396.2 K	89.33
396.7 K	90.67
397.18 K	91.98
397.67 K	93.35
398.2 K	94.67
398.65 K	95.99
399.15 K	97.32
399.59 K	98.66
400.07 K	99.99
400.54 K	101.32
401 K	102.66
401.45 K	104.01
401.91 K	105.33
402.3 K	106.66
402.75 K	107.99
403.2 K	109.32
403.62 K	110.58
404.06 K	111.98
404.45 K	113.3
404.88 K	114.66
405.31 K	115.99
405.71 K	117.32
406.12 K	118.69
406.52 K	119.98
406.91 K	121.36
407.3 K	122.64
407.7 K	124
408.08 K	125.32
408.49 K	126.67
408.85 K	127.99
409.23 K	129.32
409.62 K	130.64
409.98 K	132.01
410.35 K	133.34
410.71 K	134.64
411.07 K	135.99
411.44 K	137.33
411.8 K	138.63
412.15 K	139.99
412.49 K	141.33
412.85 K	142.67
413.21 K	143.99
413.55 K	145.32
413.89 K	146.65
414.22 K	148
414.55 K	149.34
414.91 K	150.65
415.23 K	151.99
415.57 K	153.32
415.87 K	154.61
416.21 K	155.97
416.55 K	157.29
416.87 K	158.66
417.18 K	159.97
